# Measured values published in patent US9737525B2, “Small molecule activators of NRF2 pathway” (The General Hospital Corporation, priority 2013, dated 2017).
# Counter-ions that a name gives are not always drawn.
# Legend:
# [1] = target: human recombinant SIRT2 deacetylase (Homo sapiens (Human), UniProt Q8IXJ6); experiment: Sirtuin biochemical deacetylation assay, SIRT2
# Protocol: Modulation of sirtuin activity by compounds was assessed using the Flour de Lys fluorescent biochemical assay in a 96-well format as described (Outeiro et al., 2007). The deacetylation reaction was performed at 37° C. for an hour in the presence of human recombinant enzymes: SIRT1 (BioMol-SE-239) 1 unit/per reaction, SIRT2 (BioMol-SE-251) 5 units/per reaction, or SIRT3 (BioMol-SE-270) 5 units/per reaction, compound of interest, standard buffer, 50 μM substrate, and 500 μM NAD^+ according to the manufacturer's protocol. […]
# [2] = tested on: NQO1; experiment: Quantitative NQO1 inducer bioassay in Hepa1c1c7 cells; assay type: cell-based, murine; settings: for EC (2-fold NQO1 activity): Mus musculus, Hepa-1c1c7, Table 3, Concentration which Doubles the specific activity of NQO1, read-out: NQD1 CD; for EC (2-fold NQO1 activity) / CD value (Concentration which Doubles the specific activity of NQO1): 48 hr exposure; for Effect of GSH pre-incubation on NQO1 inducer potency: 1 mM GSH at 37° C. for 30 min before cell treatment; for CD value (Concentration which Doubles the specific activity of NQO1): Hepa1c1c7 cells
# Protocol: Cells grown in 96-well plates were exposed to serial dilutions of each compound for 48 hr, and the NQO1 enzyme activity was determined in cell lysates. Results are shown as average values of 8 replicate wells. The standard deviation in each case was less than 5%.
# Next, using a quantitative NQO1 inducer bioassay in murine Hepa1c1c7 cells and the CD value (Concentration which Doubles the specific activity of NQO1) as a measure of potency (see Table 2), the activities of the MIND4 analogs were tested and ranked.
# Inducer potency was quantified by use of the NQO1 bioassay in Hepa1c1c7 cells as described [Prochaska, 1988]. To examine the effect of GSH on inducer potency, compounds were incubated in cell culture medium containing 1 mM GSH at 37° C. for 30 min before cell treatment.
# [3] = tested on: NRF2-responsive proteins NQO1 and GCLM; experiment: Induction of NQO1 and GCLM proteins in differentiated ST14A cells (immunoblotting); assay type: cell-based, rat; settings: differentiated HD mutant and wild type ST14A cells, 24 hours
# Protocol: (§1) To assess protein levels, cell extracts were prepared from cells washed with PBS and lysed with buffer containing 2% SDS, Complete EDTA-free Protease Inhibitor Cocktail (Roche) and 1 mM phenylmethylsulfonyl fluoride. To prepare brain extracts for analysis, frozen mouse cortical tissues were homogenized in PBS containing protease inhibitors with an Kontes Pellet Pestle (Kimble/Kontes). They were later sonicated and lysed overnight at 4° C. in 2× volume of lysis buffer containing 2% SDS and protease inhibitors. Protein concentrations in ST14A cell extracts and homogenized cortical tissues were evaluated using a BCA analysis kit and normalized. Samples were prepared in a SDS buffer containing DTT and separated on bis-acrylamide protein gels via electrophoresis and transferred onto a 0.2 μm PVDF membrane). Membranes were probed for NQO1 (Sigma N5288, 1:1,000), GCLM, (Abcam ab126704, 1:800), SIRT2 (Sigma S8447, 1:2,500), histone H3 (Cell Signaling 4499, 1:2,000), acetylated H3 (K56) (Millipore 04-1135, 1:500), TNFα (Abcam ab1793, 1:1,500), GADPH (Millipore MAB374, 1:10,000), actin (Sigma A2066, 1:1250), α-tubulin (Sigma T6074, 1:20,000), and acetylated α-tubulin (Sigma T6793, 1:2,500) overnight in 5% milk in PBST at 4° C. on a rocker. Membranes were thrice washed in PBST for 15 min on a shaker and incubated in either an anti-rabbit-HRP (Bio-Rad 170-5046, 1:10,000) or anti-mouse-HRP (Sigma A3682, 1:4,000) secondary solution as appropriate in 3% milk in PBST for 1 hr at room temperature on a rocker. After four washes of 15 min in PBST on a shaker, blots were visualized using SuperSignal West Pico Chemiluminescent Substrate (Pierce 34080) or SuperSignal West Dura Extended Duration Substrate (Thermo 34075) and exposed on Scientific Imaging Film (Kodak 864 6770).
# Compound bioactivity was tested in the rat embryonic striatal cell lines ST14A, which stably express either a mutant expanded repeat (128Q) or wild type (26Q) 546 amino acid huntingtin (HTT) fragment (a generous gift of E. Cattaneo) (Ehrlich et al., 2001) ST14A cells were propagated at 33° C. in the presence of serum. To induce neuronal differentiation, cells were serum deprived and cultured at 37° C. in the presence of N2 supplement. Cells were treated with compounds concurrently with induction of neuronal differentiation for 24 hours, as described (Quinti et al., 2010).
# The NRF2 activation properties of further MIND4 structural analogs with variable potencies of SIRT2 inhibition were tested as described previously (see Table 1) Changes in expression of the canonical NRF2-responsive proteins NQO1 and GCLM, the transcription of which was induced by MIND4, was selected as a readout of pathway activation. Protein levels of NQO1 and GCLM were examined by immunoblotting in compound treated mutant HD and wild-type ST14A cells. […] This hypothesis was tested using a second panel of MIND4 analogs (see Table 3).
# [4] = tested on: NRF2/KEAP1 in MEFs; experiment: NQO1 and NRF2 levels in mouse embryonic fibroblasts (MEFs), western blot; assay type: cell-based; settings: wild-type MEFs, 5 hr exposure
# Protocol: Mouse embryonic fibroblasts (MEFs) from wild-type (WT), NRF2-knockout (NRF2-KO) or KEAP1-knockout (KEAP1-KO) mice, were cultured in plastic dishes (Invitrogen) coated for 30 min with 0.1% (w/v) gelatin before use. The cell culture medium was Iscoves Modified Dulbecco's Medium (with L-glutamine) supplemented with human recombinant epidermal growth factor (10 ng/mL), 1× insulin/transferrin/selenium, and 10% (v/v) heat-inactivated FBS, all from Invitrogen. Cells were maintained at 5% CO2 in air at 37° C. For experiments, cells (250,000 per well) were grown for 24 hr on 6-well plates, and then treated with solvent control (0.1% DMSO, v/v) or compounds for either 5 hr or 24 hr. For western blot analysis, cells were washed twice with ice-cold phosphate buffered saline (PBS) and lysed in 150 μl of RIPA buffer (50 mM Tris-Cl pH 7.5, 150 mM NaCl, 0.5% sodium deoxycholate, 1% NP-40, 0.1% SDS and 1 mM EDTA), containing 1 protease inhibitor cocktail tablet (Roche) per 10 ml of buffer. Cell debris were removed by centrifugation at 16,300×g for […] at 4° C., and protein concentrations were determined by the BCA assay (Thermo). Proteins were resolved by SDS/PAGE, transferred to immobilon-P membranes, and probed with specific antibodies against NQO1 (1:1000) or NRF2 (1:1000). Equal loading was confirmed by probing the blots with an antibody against β-actin (mouse monoclonal, 1:10000), from Sigma, Dorset, United Kingdom.
# For nuclear-cytoplasmic separation, WT MEFs (500,000 per dish) were grown for 24 hr on 6-cm plates, and then treated with solvent control (0.1% DMSO, v/v) or 0.5 μM MIND4-17. At the end of each treatment time, cells were placed on ice and washed twice with ice-cold PBS and subsequently lysed in buffer A [10 mM KCl, 5 mM MgCl2, 50 mM Tris-HCl (pH 7.5), 0.5% Nonidet P-40 (Roche), 1 mM dithioretitol (DTT) (Sigma), containing one protease inhibitor tablet and one phosphatase inhibitor tablet (both from Roche) per each 10 ml of buffer]. The lysates were subjected to centrifugation (Spectrafuge 24D, Labnet) at 1,000×g for 5 min at 4° C. The supernatant (cytoplasmic fraction) was transferred to a fresh Eppendorf tube. The pellet (nuclear fraction) was washed three times in buffer A before being dissolved in buffer B [2% SDS, 150 mM NaCl, 65 mM Tris-HCl (pH 8.0)] and sonicated for 30 sec. Finally, the lysates were subjected to western blot analysis. The blots were probed with antibodies against GAPDH (rabbit polyclonal, 1:5000) and Lamin A/C (rabbit polyclonal, 1:1000, Gene Tex, Calif., United States of America) to confirm fraction purity and equal protein loading.
# [5] = tested on: α-tubulin K40 and histone H3 acetylation; experiment: Acetylation of SIRT2 substrates in wild type primary cortical neurons; assay type: cell-based, mouse; set-up: α-Tubulin acetylation: dose or concentration left out as unconfirmed; settings: primary neurons
# Protocol: as §1
# Based upon the robust neuroprotection observed in HD model systems expressing both mutant HTT fragments and full-length mutant HTT, verification of the bioactivity of MIND4 as SIRT2 inhibitor in primary neurons was sought. […]
# human recombinant SIRT2 deacetylase, sequence (Q8IXJ6 whole entry): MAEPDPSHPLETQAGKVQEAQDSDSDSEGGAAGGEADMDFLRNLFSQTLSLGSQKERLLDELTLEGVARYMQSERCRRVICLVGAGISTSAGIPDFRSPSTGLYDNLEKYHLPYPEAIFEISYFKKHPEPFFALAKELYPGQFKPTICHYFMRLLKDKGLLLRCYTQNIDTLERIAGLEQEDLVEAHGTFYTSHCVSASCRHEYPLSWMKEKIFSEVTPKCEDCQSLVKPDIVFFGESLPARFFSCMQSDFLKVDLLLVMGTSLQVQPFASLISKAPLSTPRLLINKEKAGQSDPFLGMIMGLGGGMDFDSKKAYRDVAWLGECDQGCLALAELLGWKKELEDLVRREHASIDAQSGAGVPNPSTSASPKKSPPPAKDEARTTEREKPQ
Structure (SMILES),IC50 ([1]; Table 3) [µM],EC (2-fold NQO1 activity) [2] [µM],IC50 ([1]; Table 1) [µM],further results
O=[N+]([O-])c1ccc(Sc2nnc(COc3ccccc3)[nH]2)nc1 [MIND4-17-3],> 50,7.5,–,–
c1ccc(CSc2nnc(COc3ccccc3)n2-c2ccccc2)cc1 [MIND4-19],–,–,7,–
Clc1ccc(-n2c(COc3cccc4ccccc34)nnc2SCc2ccccc2)cc1 [MIND4-2],–,–,12,–
O=[N+]([O-])c1ccc(Sc2nnc(-c3ccc(Cl)cc3)n2-c2ccccc2)nc1 [MIND4-17-33],7.5,0.3,–,Effect of GSH pre-incubation on NQO1 inducer potency [2]: significantly affected by pre-incubation with GSH; CD value (Concentration which Doubles the specific activity of NQO1) [2]: 0.3 µM; Induction of NRF2-responsive proteins NQO1 and GCLM [3]: potent induction of NQO1 protein
COc1ccc(CSc2nnc(COc3cccc4ccccc34)n2Cc2ccccc2)cc1 [MIND4-23],–,–,9,–
O=[N+]([O-])c1ccc(Sc2nnc(-c3ccccc3)n2-c2ccccc2)c2ncccc12 [MIND4A],7.5,1,–,SIRT2 inhibition ([1]; dose-response): lower potency of SIRT2 inhibition; Effect of GSH pre-incubation on NQO1 inducer potency [2]: much more modest; CD value (Concentration which Doubles the specific activity of NQO1) [2]: 1 µM; Induction of NRF2-responsive proteins NQO1 and GCLM [3]: higher potency induction
O=[N+]([O-])c1ccc(Sc2nnc(Cc3ccccc3)n2-c2ccccc2)nc1 [MIND4-17-15],> 50,0.3,–,–
c1ccc(CSc2nnc(COc3cccc4ccccc34)n2Cc2ccccc2)cc1 [MIND4-22],–,–,6,–
c1ccc(CSc2nnc(COc3cccc4ccccc34)n2-c2ccccc2)cc1 [MIND4-11],4.5,> 10,4.5,–
Cn1cnnc1Sc1ccc([N+](=O)[O-])c2cccnc12 [MIND4B],> 50,2,–,–
O=[N+]([O-])c1ccc(CSc2nnc(COc3ccccc3)n2-c2ccccc2)cc1 [MIND4-21],10,–,10,–
c1ccc(CSc2nnc(COc3cccc4cccnc34)n2-c2ccccc2)cc1 [MIND4-12],–,–,9,–
Brc1cccc(CSc2nnc(COc3ccccc3)n2-c2ccccc2)c1 [MIND4-20],–,–,5,–
"COC(=O)/C=C/C(=O)OC [dimethyl fumarate, reference compound]",–,–,–,CD value (Concentration which Doubles the specific activity of NQO1) [2]: 9 µM; Induction of NRF2-responsive proteins NQO1 and GCLM [3]: dose-dependent induction of NQO1 protein
O=[N+]([O-])c1ccc(Sc2nnc(COc3ccccc3)n2-c2ccccc2)c2cccnc12 [MIND4C],> 20,5,–,Induction of NRF2-responsive proteins NQO1 and GCLM [3]: weaker activation; Accumulation of total NRF2 protein [4]: to much lesser extent
O=[N+]([O-])c1cnc(Sc2nnc(-c3ccc(Cl)cc3)n2-c2ccccc2)c(Br)c1 [MIND4-17-56],0.75,2.5,–,Effect of GSH pre-incubation on NQO1 inducer potency [2]: much more modest; CD value (Concentration which Doubles the specific activity of NQO1) [2]: 2.5 µM; Induction of NRF2-responsive proteins NQO1 and GCLM [3]: lower potency in its ability to induce NQO1
"C[S+]([O-])CCCCN=C=S (stereo not drawn) [sulforaphane, reference compound]",–,–,–,CD value (Concentration which Doubles the specific activity of NQO1) [2]: 0.18 µM; Accumulation of total NRF2 protein [4]: readily detectable
"O=C(CCCCCCC(=O)Nc1ccc([C@H]2O[C@@H](CSc3nc(-c4ccccc4)c(-c4ccccc4)o3)C[C@@H](c3ccc(CO)cc3)O2)cc1)NO [tubacin, reference compound]",–,–,–,α-Tubulin acetylation [5]: significantly increased α-tubulin acetylation
